Results as given in US20240317780A1, “RADIOPHARMACEUTICAL SOMATOSTATIN RECEPTOR LIGANDS AND PRECURSORS THEREOF” (Technische Universität München, priority 2021, published 2024).
Where two headings read alike, the source gives them in different places. Where a SMILES comes first, the peptide text is derived from it. Bridges are numbered along the chain shown (N, C = ends). [ ]: non-standard residue; d: D form. The star is where a group is joined. ξ: configuration not given here. X1 = CC(C)(C)[Si](F)(c1ccc(C[N+](C)(C)CC(=O)*)cc1)C(C)(C)C; DO3AM = NC(=O)CN1CCN(CC(N)=O)CCN(CC(=O)*)CCN(CC(N)=O)CC1; ξW = NC(Cc1c[nH]c2ccccc12)C(=O)O; dOrn = NCCC[C@@H](N)C(=O)O; ξF = NC(Cc1ccccc1)C(=O)O; ξT = CC(O)C(N)C(=O)O; ξDap = NCC(N)C(=O)O; ξC = NC(CS)C(=O)O

Key:
SST2 = molecular target: T1, SST2 (Homo sapiens, UniProt P30874); assay: Determination of IC50: competitive binding against [125I]TOC on SST2-transfected CHO cells; details: [125I]TOC reference radioligand, 60 min room temperature
T1 construct: expressed in transfected cells; host or cells: CHO (Chinese hamster ovary) cells
Description: The SST2-transfected CHO cells were cultivated in Dulbecco's Modified Eagle Medium/Nutrient Mixture F-12 (DMEM/F-12) with Glutamax-I (1:1) (Gibco), supplemented with 10% fetal calf serum (FCS) and maintained at 37° C. in a humidified 5% CO2 atmosphere. […] After removal of the culture medium, the cells were treated once with 300 μL of HBSS-B (Hank's balanced salt solution, Biochrom, Berlin, Germany, with addition of 1% bovine serum albumin (BSA)) and left with 200 μL HBSS-B. Next, 25 μL per well of solutions, containing either HBSS-B (control) or the respective ligand in increasing concentration (10^−10-10^−4 M in HBSS-B, were added with subsequent addition of 25 μL of
[^125I]TOC ([^125I]Tyr^3-Octreotide) (1.0 nM) in HBSS-B. Each concentration is investigated in triplicate. After 60 min incubation at room temperature, the experiment was terminated by removal of the assay medium and consecutive rinsing with 300 μL of cold PBS. The media of both steps were combined in one fraction and represent the amount of unbound radioligand.
Afterwards, the cells were lysed with 300 μL of 1 M NaOH and united with the 300 μL 1 M NaOH of the following wash step. Quantification of bound and unbound radioligand was accomplished in a γ-counter.

[1] = Biodistribution of 18F-labeled SST2 ligands in AR42J tumor-bearing mice; format: in vivo; details: female, CD1 nu/nu, mouse, iv, total radioactivity, 1 h post injection, tail vein
Description: All animal experiments were conducted in accordance with general animal welfare regulations in Germany and the institutional guidelines for the care and use of animals. To establish tumor xenografts, AR42J cells (5×10^6 cells/100 μL) were suspended in Dulbecco modified Eagle medium/Nutrition Mixture F-12 with Glutamax-1 (1:1) and inoculated subcutaneously onto the right shoulder of 8 weeks old, female CD1 nu/nu mice (Charles River, Sulzfeld, Germany). Mice were used for experiments when tumors had grown to a diameter of 5-9 mm (7-15 days after inoculation).
Approximately 0.5-2.0 MBq (0.05-0.25 nmol) of the ^18F-labeled SST2-ligands were injected into the tail vein of AR42J tumor-bearing female CD1 nu/nu mice and sacrificed after 1 h post injection (n=3-5). Selected organs were removed, weighted and measured in a γ-counter.
The Tables 4, 5, and 6 summarize the results of the in vivo mouse experiments. For all biodistribution studies, female CD1 nu/nu mice with AR42J tumor xenografts, were used and sacrificed 1 h post injection.

T1 sequence (P30874 whole entry, species assumed): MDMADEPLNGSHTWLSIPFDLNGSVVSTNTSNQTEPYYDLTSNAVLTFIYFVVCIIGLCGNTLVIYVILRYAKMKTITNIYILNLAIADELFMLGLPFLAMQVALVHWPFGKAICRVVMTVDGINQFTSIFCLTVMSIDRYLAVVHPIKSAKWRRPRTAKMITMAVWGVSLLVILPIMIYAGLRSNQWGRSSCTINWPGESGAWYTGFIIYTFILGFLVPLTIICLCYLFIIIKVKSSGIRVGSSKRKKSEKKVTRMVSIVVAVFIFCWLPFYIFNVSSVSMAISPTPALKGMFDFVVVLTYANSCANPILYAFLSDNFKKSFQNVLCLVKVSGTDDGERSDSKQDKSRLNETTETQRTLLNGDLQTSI

C[C@@H](O)[C@H](NC(=O)C1CSSCC(NC(=O)C(Cc2ccccc2)NC(=O)CNC(=O)CNC(=O)[C@@H](CC(=O)O)NC(=O)C(CC(=O)O)NC(=O)[C@@H](CNC(=O)CN2CCN(CC(=O)O)CCN(CC(=O)O)CCN(CC(=O)O)CC2)NC(=O)C(CN)NC(=O)c2ccc([Si](F)(C(C)(C)C)C(C)(C)C)cc2)C(=O)N[C@@H](Cc2ccc(O)cc2)C(=O)NC(Cc2c[nH]c3ccccc23)C(=O)N[C@@H](CCCCN)C(=O)N[C@@H]([C@@H](C)O)C(=O)N1)C(=O)O (stereo partly drawn) (natGa complex, metal not drawn) [[Ga]19]
IC50 (SST2): 11.2 ± 1.04 nM | tissue uptake at 1 h ([1]; AR42J tumor, AR42J tumor, read-out: Tumor % ID/g ± SD): 36.3 ± 4.54 %ID/g | tissue uptake at 1 h ([1]; adrenal glands, read-out: Adrenal glands % ID/g ± SD): 2.56 ± 0.21 %ID/g | tissue uptake at 1 h ([1]; blood, read-out: Blood % ID/g ± SD): 2.24 ± 0.3 %ID/g | tissue uptake at 1 h ([1]; bone, read-out: Bone % ID/g ± SD): 1.96 ± 0.38 %ID/g | tissue uptake at 1 h ([1]; heart, read-out: Heart % ID/g ± SD): 0.88 ± 0.11 %ID/g | tissue uptake at 1 h ([1]; intestine, read-out: Intestine % ID/g ± SD): 1.39 ± 0.24 %ID/g | tissue uptake at 1 h ([1]; kidneys, read-out: Kidneys % ID/g ± SD): 131 ± 26.7 %ID/g | tissue uptake at 1 h ([1]; liver, read-out: Liver % ID/g ± SD): 2.47 ± 0.14 %ID/g | tissue uptake at 1 h ([1]; lung, read-out: Lung % ID/g ± SD): 4.84 ± 0.98 %ID/g | tissue uptake at 1 h ([1]; muscle, read-out: Muscle % ID/g ± SD): 0.27 ± 0.04 %ID/g | tissue uptake at 1 h ([1]; pancreas, read-out: Pancreas % ID/g ± SD): 12.5 ± 1.87 %ID/g | tissue uptake at 1 h ([1]; spleen, read-out: Spleen % ID/g ± SD): 0.93 ± 0.15 %ID/g | tissue uptake at 1 h ([1]; stomach, read-out: Stomach % ID/g ± SD): 7.99 ± 2.08 %ID/g

C[C@@H](O)[C@H](NC(=O)C1CSSCC(NC(=O)C(Cc2ccccc2)NC(=O)[C@@H](CC(N)=O)NC(=O)C(CC(N)=O)NC(=O)[C@@H](CC(=O)O)NC(=O)C(CC(=O)O)NC(=O)[C@@H](CNC(=O)CN2CCN(CC(=O)O)CCN(CC(=O)O)CCN(CC(=O)O)CC2)NC(=O)C[N+](C)(C)Cc2ccc([Si](F)(C(C)(C)C)C(C)(C)C)cc2)C(=O)N[C@@H](Cc2ccc(O)cc2)C(=O)NC(Cc2c[nH]c3ccccc23)C(=O)N[C@@H](CCCCN)C(=O)N[C@@H]([C@@H](C)O)C(=O)N1)C(=O)O (stereo partly drawn) (natLu complex, metal not drawn) [[Lu]48]
IC50 (SST2): 5.5 ± 1.47 nM

C[C@@H](O)[C@H](NC(=O)C1CSSCC(NC(=O)C(Cc2ccccc2)NC(=O)[C@@H](CC(N)=O)NC(=O)C(CC(N)=O)NC(=O)CNC(=O)C(CC(=O)O)NC(=O)[C@@H](CC(=O)O)NC(=O)C(CNC(=O)CN2CCN(CC(=O)O)CCN(CC(=O)O)CCN(CC(=O)O)CC2)NC(=O)C[N+](C)(C)Cc2ccc([Si](F)(C(C)(C)C)C(C)(C)C)cc2)C(=O)N[C@@H](Cc2ccc(O)cc2)C(=O)NC(Cc2c[nH]c3ccccc23)C(=O)N[C@@H](CCCCN)C(=O)N[C@@H]([C@@H](C)O)C(=O)N1)C(=O)O (stereo partly drawn) (natLu complex, metal not drawn) [[Lu]49]
IC50 (SST2): 4.47 ± 0.95 nM

C[C@@H](O)[C@H](NC(=O)C1CSSCC(NC(=O)C(Cc2ccccc2)NC(=O)CNC(=O)CNC(=O)CNC(=O)C(CC(=O)O)NC(=O)[C@@H](CC(=O)O)NC(=O)C(CNC(=O)CN2CCN(CC(=O)O)CCN(CC(=O)O)CCN(CC(=O)O)CC2)NC(=O)C[N+](C)(C)Cc2ccc([Si](F)(C(C)(C)C)C(C)(C)C)cc2)C(=O)N[C@@H](Cc2ccc(O)cc2)C(=O)NC(Cc2c[nH]c3ccccc23)C(=O)N[C@@H](CCCCN)C(=O)N[C@@H]([C@@H](C)O)C(=O)N1)C(=O)O (stereo partly drawn) (natLu complex, metal not drawn) [[Lu]50]
IC50 (SST2): 3.72 ± 0.61 nM

C[C@@H](O)[C@H](NC(=O)C1CSSCC(NC(=O)C(Cc2ccccc2)NC(=O)CNC(=O)CNC(=O)CNC(=O)C(CC(=O)O)NC(=O)[C@@H](CC(=O)O)NC(=O)C(CNC(=O)CN2CCN(CC(=O)O)CCN(CC(=O)O)CCN(CC(=O)O)CC2)NC(=O)[C@@H](CN)NC(=O)C[N+](C)(C)Cc2ccc([Si](F)(C(C)(C)C)C(C)(C)C)cc2)C(=O)N[C@@H](Cc2ccc(O)cc2)C(=O)NC(Cc2c[nH]c3ccccc23)C(=O)N[C@@H](CCCCN)C(=O)N[C@@H]([C@@H](C)O)C(=O)N1)C(=O)O (stereo partly drawn) (natLu complex, metal not drawn) [[Lu]51]
IC50 (SST2): 3.09 ± 0.16 nM

C[C@@H](O)[C@H](NC(=O)C1CSSCC(NC(=O)C(Cc2ccccc2)NC(=O)CNC(=O)CNC(=O)CNC(=O)C(CC(=O)O)NC(=O)[C@@H](CC(=O)O)NC(=O)C(CNC(=O)CN2CCN(CC(=O)O)CCN(CC(=O)O)CCN(CC(=O)O)CC2)NC(=O)[C@@H](CN)NC(=O)CNC(=O)C[N+](C)(C)Cc2ccc([Si](F)(C(C)(C)C)C(C)(C)C)cc2)C(=O)N[C@@H](Cc2ccc(O)cc2)C(=O)NC(Cc2c[nH]c3ccccc23)C(=O)N[C@@H](CCCCN)C(=O)N[C@@H]([C@@H](C)O)C(=O)N1)C(=O)O (stereo partly drawn) (natLu complex, metal not drawn) [[Lu]52]
IC50 (SST2): 3.51 ± 0.41 nM

C[C@@H](O)[C@H](NC(=O)C1CSSCC(NC(=O)C(Cc2ccccc2)NC(=O)CNC(=O)CNC(=O)CNC(=O)C(CC(=O)O)NC(=O)[C@@H](CC(=O)O)NC(=O)C(CNC(=O)CN2CCN(CC(=O)O)CCN(CC(=O)O)CCN(CC(=O)O)CC2)NC(=O)[C@@H](CN)NC(=O)CNC(=O)CNC(=O)C[N+](C)(C)Cc2ccc([Si](F)(C(C)(C)C)C(C)(C)C)cc2)C(=O)N[C@@H](Cc2ccc(O)cc2)C(=O)NC(Cc2c[nH]c3ccccc23)C(=O)N[C@@H](CCCCN)C(=O)N[C@@H]([C@@H](C)O)C(=O)N1)C(=O)O (stereo partly drawn) (natLu complex, metal not drawn) [[Lu]53]
IC50 (SST2): 3.36 ± 0.27 nM

CC(O)C(NC(=O)C1CSSCC(NC(=O)C(Cc2ccccc2)NC(=O)CNC(=O)CNC(=O)CNC(=O)[C@@H](CCCN)NC(=O)[C@@H](CCCN)NC(=O)C(CNC(=O)CN2CCN(CC(N)=O)CCN(CC(N)=O)CCN(CC(N)=O)CC2)NC(=O)C[N+](C)(C)Cc2ccc([Si](F)(C(C)(C)C)C(C)(C)C)cc2)C(=O)N[C@@H](Cc2ccc(O)cc2)C(=O)NC(Cc2c[nH]c3ccccc23)C(=O)N[C@@H](CCCCN)C(=O)N[C@@H]([C@@H](C)O)C(=O)N1)C(=O)O (stereo partly drawn) [[Pb]61] (X1-[ξDap](DO3AM)[dOrn][dOrn]GGG[ξF][ξC]Y[ξW]KT[ξC][ξT]-OH; disulfide 8-13)
IC50 (SST2): 7.96 ± 0.28 nM
